This is an account of results in patent US20050032738A1, “Method of treating cancer by conjunctive therapy with 2'-haloemethylidene derivatives and a S-phase or M-phase specific antineoplastic agent” (Merrell Pharmaceuticals Inc., priority 1992, published 2005).

Molecules are shown by their SMILES. Converted amounts (≈) assume the structure as drawn.

For one assay, the system named is HeLa cells. The assay can be described thus: Antiproliferative activity against HeLa cells (MTT cell viability). The conditions noted are these: for IC50: Homo sapiens, HeLa, 72 h, read-out: Drug Alone IC50.
The next assay deals with B16 melanoma. The assay can be described thus: Antitumor activity against B16 melanoma in mice. It is filed as in vivo. The conditions noted are these: B16 melanoma s.c. day 0, i.p. once daily, 101,731 5 mg/kg day 1-7, Ara-C 10 mg/kg day 7-14; for % Inhibition (tumor weight): day 15; for Tumor Weight (g) (Mean ± S.D.): tumors weighed day 15. From the text: Inject B16 melanoma cells (1×10^5 cells/mouse) subcutaneously on day 0. Administer compounds i.p. once daily as indicated. Sacrifice the animals on day 15, dissect the tumors and weigh.

A further assay has as its system Lewis lung carcinoma. The assay can be described thus: Antitumor activity against Lewis lung carcinoma in mice (tumor weight, pulmonary metastatic foci). The conditions noted are these: i.p. once daily, 101,731 5 mg/kg day 1-7, Ara-C 10 mg/kg day 7-14; for % Inhibition (tumor weight) / Tumor Weight (g) (Mean ± S.D.): 3LL cells s.c. day 0; for % Inhibition (tumor weight) / % Inhibition (No. of foci) / No. of Foci (Mean ± S.D.): day 15; for Tumor Weight (g) (Mean ± S.D.): tumors weighed day 15; for % Inhibition (No. of foci) / No. of Foci (Mean ± S.D.): pulmonary metastatic foci. It is filed as in vivo. The text has this: Inject 3 LL cells (1×10^5/mouse) s.c. on day 0. Administer compounds i.p., once daily as indicated. Sacrifice animals on day 15, dissect the tumors and weigh. Also count pulmonary metastatic foci.

For `O=c1[nH]cc(F)c(=O)[nH]1` [5-Fluorouracil (5Fu), 5-Fluorouracil], in the assay with HeLa cells, the IC50 (commonly the concentration at which inhibition is half-maximal) came to 41.1 µg/mL (≈ 316 µM).

Consider `Nc1ccn([C@@H]2O[C@H](CO)[C@@H](O)/C2=C\F)c(=O)n1` [101,731, (E)-2′-deoxy-2′-fluoromethylidenecytidine], for which the “Effect on the growth of the tumor cells” value in the assay with HeLa cells (MDL 101,731 alone, 15 ng/mL for 24 hours, HeLa cells) is given as “did not show any effect”. In the assay on B16 melanoma, the “% Inhibition (tumor weight)” value is 10% and the “Tumor Weight (g) (Mean ± S.D.)” value came out at 2.4 ± 0.9 g. In addition, in the assay on Lewis lung carcinoma, the “% Inhibition (tumor weight)” value was 20%, the “Tumor Weight (g) (Mean ± S.D.)” value worked out at 2.8 ± 0.6 g, the “% Inhibition (No. of foci)” value is 0% and the “No. of Foci (Mean ± S.D.)” value is given as 15.5 ± 6.

For the molecule `Nc1ccn([C@@H]2O[C@H](CO)[C@@H](O)[C@@H]2O)c(=O)n1` [Ara-C, Cytosine Arabinoside], in the assay on HeLa cells (HeLa cells pretreated with MDL 101,731 15 ng/mL for 24 hours, washed, then drug for 72 hours, MTT), the “Drug + 101,731 IC50” value is 3.2 µg/mL. In addition, in the assay with HeLa cells (HeLa cells, 72 hours exposure to drug, MTT), the “Drug Alone IC50” value was found to be 13.7 µg/mL. In the assay on B16 melanoma, the “% Inhibition (tumor weight)” value is 0% and the “Tumor Weight (g) (Mean ± S.D.)” value turned out to be 3.6 ± 0.8 g. In the assay with Lewis lung carcinoma, the “% Inhibition (tumor weight)” value is recorded as 0%, the “Tumor Weight (g) (Mean ± S.D.)” value turned out to be 3.83 ± 0.8 g, the “% Inhibition (No. of foci)” value stood at 0% and the “No. of Foci (Mean ± S.D.)” value amounted to 14.6 ± 5.

In the case of `CC[C@]1(O)C[C@@H]2CN(CCc3c([nH]c4ccccc34)[C@@](C(=O)OC)(c3cc4c(cc3OC)N(C)[C@H]3[C@@](O)(C(=O)OC)[C@H](OC(C)=O)[C@]5(CC)C=CCN6CC[C@]43[C@@H]65)C2)C1` [Vinblastine (VLB), Vinblastine], in the assay on HeLa cells, the IC50 was found to be 86.7 µg/mL (≈ 107 µM).
